In patent publication US20140024667A1, “FUNGICIDAL COMPOSITIONS” (SYNGENTA CROP PROTECTION LLC, priority 2005, published 2014):

Columns and labels:
Assay type in all cases: cell-based
Pyrenophora teres = assay: Fungal growth assay against Pyrenophora teres (Example B-5 a); conditions: Cyprodinil/Pyribencarb series
Description: (§1) A synergistic effect exists whenever the action of an active ingredient combination is greater than the sum of the actions of the individual components.
(§2) The action to be expected E for a given active ingredient combination obeys the so-called COLBY formula and can be calculated as follows (COLBY, S. R. “Calculating synergistic and antagonistic responses of herbicide combination”. Weeds, Vol. 15, pages 20-22; 1967):
(§3) ppm=milligrams of active ingredient (=a.i.) per liter of spray mixture X=% action by active ingredient A) using p ppm of active ingredient Y=% action by active ingredient B) using q ppm of active ingredient.
(§4) According to COLBY, the expected (additive) action of active ingredients A)+B) using p+q ppm of active ingredient is
(§5) If the action actually observed (O) is greater than the expected action (E), then the action of the combination is super-additive, i.e. there is a synergistic effect.
Conidia of the fungus from cryogenic storage are directly mixed into nutrient broth (PDB potato dextrose broth). After placing a (DMSO) solution of the test compounds into a microtiter plate (96-well format) the nutrient broth containing the fungal spores is added. […] The fungicide interactions in the combinations are calculated according to the COLBY method. The data generated in this experiment indicate synergy between cyprodinil and pyribencarb when used in mixture with one another.

Fusarium culmorum = assay: Fungal growth assay against Fusarium culmorum (Example B-14)
Description: as §1, §2, §3, §4, §5
(§6) Conidia of the fungus from cryogenic storage are directly mixed into nutrient broth (PDB potato dextrose broth). After placing a (DMSO) solution of the test compounds into a microtiter plate (96-well format) the nutrient broth containing the fungal spores is added. The test plates are incubated at 24 C and the inhibition of growth is determined photometrically after 2 days. The fungicide interactions in the combinations are calculated according to the COLBY method. The data generated in this experiment indicate synergy between cyprodinil and dodine, cyprodinil and fluazinam and cyprodinil and pyribencarb when used in mixture with one another.

Botrytis cinerea = assay: Fungal growth assay against Botrytis cinerea (Example B-1 a)
Description: as §1, §2, §3, §4, §5
as §6, with “after 3” for “after 2”, “and dodine” for “and dodine, cyprodinil and fluazinam”

[1] = system: Pseudocercosporella herpotrichoides var. acuformis; assay: Fungal growth assay against Pseudocercosporella herpotrichoides var. acuformis (Example B-8)
Description: as §1, §2, §3, §4, §5
as §6, with “after 3” for “after 2”, “and boscalid,” for “and dodine,”, “and dodine” for “and fluazinam”

[2] = 0.125 mg/L alone, Cyprodinil/Pyribencarb series
[3] = 0.25 mg/L alone, Cyprodinil/Pyribencarb series
[4] = 0.5 mg/L alone, Cyprodinil/Pyribencarb series
[5] = 1 mg/L alone, Cyprodinil/Pyribencarb series
[6] = 0.008 mg/L alone, Cyprodinil/Pyribencarb series
[7] = 0.016 mg/L alone, Cyprodinil/Pyribencarb series
[8] = 0.031 mg/L alone, Cyprodinil/Pyribencarb series
[9] = 4 mg/L alone, Cyprodinil/Dodine series
[10] = 8 mg/L alone, Cyprodinil/Dodine series
[11] = 16 mg/L alone, Cyprodinil/Dodine series
[12] = 0.5 mg/L alone, Cyprodinil/Dodine series
[13] = 1 mg/L alone, Cyprodinil/Dodine series
[14] = 2 mg/L alone, Cyprodinil/Dodine series
[15] = 2 mg/L alone, Cyprodinil/Pyribencarb series
[16] = 4 mg/L alone, Cyprodinil/Pyribencarb series
[17] = 0.125 mg/L alone, Cyprodinil/Boscalid series
[18] = 0.125 mg/L alone, Cyprodinil/Dodine series
[19] = 0.25 mg/L alone, Cyprodinil/Boscalid series
[20] = 0.25 mg/L alone, Cyprodinil/Dodine series
[21] = 0.5 mg/L alone, Cyprodinil/Boscalid series

## COC(=O)NCc1cc(/C(C)=N/OCc2cccc(C)n2)ccc1Cl [Pyribencarb]
Pyrenophora teres; 0.004 mg/L alone
  Observed control in % (% Cobs): 0%
Pyrenophora teres; 0.008 mg/L alone
  Observed control in % (% Cobs): 0%
Pyrenophora teres; 0.016 mg/L alone
  Observed control in % (% Cobs): 0%
Pyrenophora teres; 0.031 mg/L alone
  Observed control in % (% Cobs): 0%
Pyrenophora teres; 0.063 mg/L alone
  Observed control in % (% Cobs): 17.0%
Fusarium culmorum; [2]
  Observed control in % (% Cobs): 0%
Fusarium culmorum; [3]
  Observed control in % (% Cobs): 8.7%
Fusarium culmorum; [4]
  Observed control in % (% Cobs): 11.5%
Fusarium culmorum; [5]
  Observed control in % (% Cobs): 16.2%
Botrytis cinerea; [6]
  Observed control in % (% Cobs): 0.4%
Botrytis cinerea; [7]
  Observed control in % (% Cobs): 0%
Botrytis cinerea; [8]
  Observed control in % (% Cobs): 3.3%
Botrytis cinerea; 0.063 mg/L alone, Cyprodinil/Pyribencarb series
  Observed control in % (% Cobs): 2.6%
Botrytis cinerea; [2]
  Observed control in % (% Cobs): 16.4%
[1]; [6]
  Observed control in % (% Cobs): 16.2%
[1]; [7]
  Observed control in % (% Cobs): 40.1%
[1]; [8]
  Observed control in % (% Cobs): 61.1%

## Cc1cc(C2CC2)nc(Nc2ccccc2)n1 [Cyprodinil, (4-cyclopropyl-6-methyl-pyrimidin-2-yl)-phenyl-amine]
Pyrenophora teres; 0.25 mg/L alone
  Observed control in % (% Cobs): 52.0%
Pyrenophora teres; 0.5 mg/L alone
  Observed control in % (% Cobs): 59.0%
Fusarium culmorum; 2 mg/L alone, Cyprodinil/Fluazinam series
  Observed control in % (% Cobs): 0%
Fusarium culmorum; [9]
  Observed control in % (% Cobs): 0%
Fusarium culmorum; 4 mg/L alone, Cyprodinil/Fluazinam series
  Observed control in % (% Cobs): 0%
Fusarium culmorum; [10]
  Observed control in % (% Cobs): 0%
Fusarium culmorum; 8 mg/L alone, Cyprodinil/Fluazinam series
  Observed control in % (% Cobs): 0%
Fusarium culmorum; 8 mg/L alone, Cyprodinil/Pyribencarb series
  Observed control in % (% Cobs): 2.4%
Fusarium culmorum; [11]
  Observed control in % (% Cobs): 6.7%
Fusarium culmorum; 16 mg/L alone, Cyprodinil/Fluazinam series
  Observed control in % (% Cobs): 9.8%
Fusarium culmorum; 16 mg/L alone, Cyprodinil/Pyribencarb series
  Observed control in % (% Cobs): 8.4%
Fusarium culmorum; 32 mg/L alone, Cyprodinil/Dodine series
  Observed control in % (% Cobs): 26.9%
Fusarium culmorum; 32 mg/L alone, Cyprodinil/Fluazinam series
  Observed control in % (% Cobs): 16.4%
Fusarium culmorum; 32 mg/L alone, Cyprodinil/Pyribencarb series
  Observed control in % (% Cobs): 21.7%
Botrytis cinerea; [2]
  Observed control in % (% Cobs): 16.7%
Botrytis cinerea; [3]
  Observed control in % (% Cobs): 22.6%
Botrytis cinerea; [12]
  Observed control in % (% Cobs): 26.7%
Botrytis cinerea; [4]
  Observed control in % (% Cobs): 21.4%
Botrytis cinerea; [13]
  Observed control in % (% Cobs): 38.2%
Botrytis cinerea; [5]
  Observed control in % (% Cobs): 25.7%
Botrytis cinerea; [14]
  Observed control in % (% Cobs): 50.5%
Botrytis cinerea; [15]
  Observed control in % (% Cobs): 23.2%
Botrytis cinerea; [9]
  Observed control in % (% Cobs): 40.1%
Botrytis cinerea; [16]
  Observed control in % (% Cobs): 37.1%
Botrytis cinerea; [10]
  Observed control in % (% Cobs): 51.8%
[1]; 0.0625 mg/L alone, Cyprodinil/Boscalid series
  Observed control in % (% Cobs): 23.5%
[1]; [17]
  Observed control in % (% Cobs): 40.7%
[1]; [18]
  Observed control in % (% Cobs): 10.9%
[1]; [2]
  Observed control in % (% Cobs): 16.6%
[1]; [19]
  Observed control in % (% Cobs): 28.9%
[1]; [20]
  Observed control in % (% Cobs): 14.8%
[1]; [21]
  Observed control in % (% Cobs): 19.6%
[1]; [12]
  Observed control in % (% Cobs): 13.7%
[1]; [4]
  Observed control in % (% Cobs): 30.1%
[1]; 1 mg/L alone, Cyprodinil/Boscalid series
  Observed control in % (% Cobs): 17.5%
[1]; [13]
  Observed control in % (% Cobs): 17.9%
[1]; [5]
  Observed control in % (% Cobs): 19.3%
[1]; 2 mg/L alone, Cyprodinil/Boscalid series
  Observed control in % (% Cobs): 24.6%
[1]; [14]
  Observed control in % (% Cobs): 20.3%
[1]; [15]
  Observed control in % (% Cobs): 21.5%
[1]; 4 mg/L alone, Cyprodinil/Boscalid series
  Observed control in % (% Cobs): 33.6%
[1]; [9]
  Observed control in % (% Cobs): 25.9%
[1]; [16]
  Observed control in % (% Cobs): 27.2%
[1]; [10]
  Observed control in % (% Cobs): 33.6%
[1]; [11]
  Observed control in % (% Cobs): 46.2%

## O=[N+]([O-])c1cc(C(F)(F)F)c(Cl)c([N+](=O)[O-])c1Nc1ncc(C(F)(F)F)cc1Cl [Fluazinam]
Fusarium culmorum; 0.063 mg/L alone, Cyprodinil/Fluazinam series
  Observed control in % (% Cobs): 5.1%
Fusarium culmorum; 0.125 mg/L alone, Cyprodinil/Fluazinam series
  Observed control in % (% Cobs): 11.8%
Fusarium culmorum; 0.25 mg/L alone, Cyprodinil/Fluazinam series
  Observed control in % (% Cobs): 27.4%
Fusarium culmorum; 0.5 mg/L alone, Cyprodinil/Fluazinam series
  Observed control in % (% Cobs): 35.7%
Fusarium culmorum; 1 mg/L alone, Cyprodinil/Fluazinam series
  Observed control in % (% Cobs): 72.4%

## CCCCCCCCCCCCNC(=N)N [Dodine]
Fusarium culmorum; [10]
  Observed control in % (% Cobs): 3.3%
Fusarium culmorum; [11]
  Observed control in % (% Cobs): 15.1%
Botrytis cinerea; [9]
  Observed control in % (% Cobs): 0%
Botrytis cinerea; [10]
  Observed control in % (% Cobs): 0%
Botrytis cinerea; [11]
  Observed control in % (% Cobs): 36.3%
[1]; [18]
  Observed control in % (% Cobs): 0%
[1]; [20]
  Observed control in % (% Cobs): 0%
[1]; [12]
  Observed control in % (% Cobs): 0%
[1]; [13]
  Observed control in % (% Cobs): 0%
[1]; [14]
  Observed control in % (% Cobs): 1.4%
[1]; [9]
  Observed control in % (% Cobs): 31.3%
[1]; [10]
  Observed control in % (% Cobs): 70.5%
[1]; [11]
  Observed control in % (% Cobs): 72.4%

## O=C(Nc1ccccc1-c1ccc(Cl)cc1)c1cccnc1Cl [Boscalid]
[1]; 0.031 mg/L alone, Cyprodinil/Boscalid series
  Observed control in % (% Cobs): 0%
[1]; 0.063 mg/L alone, Cyprodinil/Boscalid series
  Observed control in % (% Cobs): 2.5%
[1]; [17]
  Observed control in % (% Cobs): 32.8%
[1]; [19]
  Observed control in % (% Cobs): 58.4%
[1]; [21]
  Observed control in % (% Cobs): 77.1%
